US11466025B2, “Thienopyridine derivatives containing unsaturated aliphatic olefinic bond, preparation method and use thereof” (Tianjin Institute of Pharmaceutical Research Co., Ltd., priority 2017, dated 2022)
Read-outs that look alike come from different tables or passages of the source.

Columns and labels:
[1] = system: platelet aggregation induced by ADP; assay: Test of inhibitory effect of compounds on platelet aggregation in rats (ex vivo, ADP-induced, after intragastric administration); parameters: species or system SD rats; details: for ED50: Rattus norvegicus; for Inhibition rate (%): platelet aggregation, control = 100%; for Aggregation rate (%): 2 h after administration, ADP 20 uM
Procedure: Test of Inhibitory Effect of Compounds on Platelet Aggregation in Rats Healthy male SD rats were selected and randomly divided into solvent control group, positive drug control group and test compound group. Intragastric administration was carried out, with the administration volume being 10 ml/kg˜bw. […] The platelet count was adjusted to 5×10^8 cells/ml with PPP.

[2] = system: arteriovenous bypass thrombosis in rats; assay: Test of effect of compounds on arteriovenous bypass thrombosis in rats; type: in vivo, SD rats; details: rats; for ED50: Rattus norvegicus, po, dry weight of thrombus from arteriovenous bypass, intragastric, read-out: ED50; for Inhibition rate (%): dry weight of thrombus
Procedure: Test of Effect of Compounds on Arteriovenous Bypass Thrombosis in Rats
Male SD rats were randomly divided into solvent control group, positive drug control group and test compound group. The solvent control group was administered a corresponding volume of the solvent. […] Rats were anesthetized with 4% chloral hydrate (0.32 g/kg), and fixed on the operating table at the supine position. The right common carotid artery and the left external jugular vein were separated, and was each inserted with a Teflon tube filled with normal saline solution containing heparin (50 U/mL), which were connected through another Teflon tube. A 6 cm long cotton thread was placed at the joints of the two tubes. After 2.5 h of administration, the arteriovenous loop was opened in each group and circulated for 15 min. The blood flow was interrupted, and the cotton thread wrapped with the thrombus was quickly removed and weighed. The weight of the cotton thread was subtracted to obtain the wet weight of the thrombus, and then it was baked in the oven to constant weight and weighed. The weight of the cotton thread was subtracted to obtain the dry weight of the thrombus.

[3] = for Concentration of incubated compound in human plasma / Incubated compound in human plasma, %: 1 μM
Procedure: Plasma samples (double sample) containing 1 μM of the compounds of the present invention, clopidogrel hydrogen sulfate (LBGL), 2-oxo product (2-Oxo) were prepared from human blank plasma, and incubated at 37° C. 50 μL of the above incubated plasma samples were taken at different time points, and 100 μL of precipitant (acetonitrile:methanol=7:3) and 50 μL of internal standard were added. The mixture was vortexed for 1 min and centrifuged for 10 min. 100 μL of the supernatant was taken into an inner inserted tube, centrifuged for 5 min, and injected for LC-MS/MS analysis.
Preparation of blank control sample (PPT-0): 100 μL of frozen human blank plasma was taken, to which 195 μL of acetonitrile and 100 μL of internal standard were added, followed by 5 μL of the compound of the present invention, clopidogrel or 2-oxo product (20 μM). The mixture was vortexed for 1 min and centrifuged for 10 min. 100 μL of the supernatant was taken into an inner inserted tube, centrifuged for 5 min, and injected for LC-MS/MS analysis.

[4] = Stability of the compounds under high temperature, high humidity and light (influence factors, HPLC); type: physicochemical
Procedure: Study on the Stability of the Compounds:
The stability of the compound is investigated under the conditions of high temperature, high humidity and light. The testing conditions for high performance liquid chromatography (HPLC) are as follows:
Instrument: high performance liquid chromatography;
Column: Inertsil C8-3, 150 mm×4.6 mm, 5 μm;
Mobile phase A: acetonitrile; mobile phase B: 5 mM ammonium dihydrogen phosphate;
Detection wavelength: 220 nm;
Column temperature: 35° C.;
Sample chamber temperature: 25° C.;
Column: Agilent Poroshell 120 EC-C18, 100 mm×4.6 mm, 2.7 μm;
Column temperature: 30° C.;
Other conditions are the same as that in Method 1.
Samples relating to Compound I-2 were tested using Method 2 and other samples were tested using Method 1. The test results of the influence factors are shown in Table 14, and the test results of the light-avoidance stability test are shown in Table 15.

[5] = system: bleeding time of amputated tail in rats; assay: Test of hemorrhagic side effects: bleeding time of amputated tail in rats; type: in vivo, SD rats; details: intragastric, tail cut 1 h after administration, linear equation fitted
Procedure: Test of Hemorrhagic Side Effects:
1 h after administration, the rats were anesthetized by intraperitoneal injection of 20% urethane (1 g/kg), and the tail was cut off 5 mm from the tip of the tail, which was then placed in a test tube containing 5 ml normal saline at 37° C. The time from tail cut to cease of bleeding was recorded as the bleeding time. The increasing rate of bleeding time in each dose group was calculated, with the bleeding time of the rats in the control group being 100%.

[6] = inhibition of ADP-induced platelet aggregation, rats, oral administration, read-out: ED50
[7] = 5 days, High temperature 60° C.
[8] = 10 days, High temperature 60° C.
[9] = 30 days, High temperature 60° C.

COC(=O)[C@H](c1ccccc1Cl)N1CCc2sccc2C1 [Clopidogrel, reference compound]
ED50 [1, 6]: 4.13 mg/kg
Inhibition rate (%) ([1]; rats, intragastric 2.5 mg/kg): 26.5%
Inhibition rate (%) ([1]; rats, intragastric 5 mg/kg): 59.7%
Inhibition rate (%) ([1]; rats, intragastric 10 mg/kg): 90.5%
Aggregation rate (%) ([1]; rats, intragastric 2.5 mg/kg): 44.1 ± 13.5%
Aggregation rate (%) ([1]; rats, intragastric 5 mg/kg): 24.2 ± 10.6 %
Aggregation rate (%) ([1]; rats, intragastric 10 mg/kg): 5.7 ± 7.5 %
ED50 [2]: 11.8 mg/kg
Inhibition rate (%) ([2]; intragastric 3 mg/kg): 24.2%
Inhibition rate (%) ([2]; intragastric 10 mg/kg): 41.5%
Inhibition rate (%) ([2]; intragastric 30 mg/kg): 72.6%
Concentration of incubated compound in human plasma ([3]; 0 min): 965 nM
Incubated compound in human plasma, % ([3]; 0 min): 98.1%
Concentration of incubated compound in human plasma ([3]; 5 min): 1045 nM
Incubated compound in human plasma, % ([3]; 5 min): 106%
Concentration of incubated compound in human plasma ([3]; 10 min): 1000 nM
Incubated compound in human plasma, % ([3]; 10 min): 102%
Concentration of incubated compound in human plasma ([3]; 20 min): 987 nM
Incubated compound in human plasma, % ([3]; 20 min): 100%
Concentration of incubated compound in human plasma ([3]; 30 min): 1025 nM
Incubated compound in human plasma, % ([3]; 30 min): 104%
Concentration of incubated compound in human plasma ([3]; 45 min): 995 nM
Incubated compound in human plasma, % ([3]; 45 min): 101%
Concentration of incubated compound in human plasma ([3]; 60 min): 981 nM
Incubated compound in human plasma, % ([3]; 60 min): 100%
Concentration of incubated compound in human plasma ([3]; 90 min): 924 nM
Incubated compound in human plasma, % ([3]; 90 min): 94.0%
Concentration of incubated compound in human plasma ([3]; 120 min): 944 nM
Incubated compound in human plasma, % ([3]; 120 min): 96.0%
Stability in human plasma ([3]; plasma, 2 h): substantially stable

COC(=O)[C@H](c1ccccc1Cl)N1CCc2sc(OC(=O)/C=C/c3ccc(OC)cc3)cc2C1 [Compound D-8, Methyl (S,E)-2-(2-chlorophenyl)-2-(2-(3-(4-methoxyphenyl)acryloyloxy)-6,7-dihydrothieno[3,2-c]pyridin-5(4H)-yl)-acetate, reference compound]
Chromatographic purity % ([4]; 0 day, 0point): 99.118%
Individual maximum impurity % ([4]; 0 day, 0point): 0.135%
Chromatographic purity % ([4]; 5 days, High humidity RH92.5%): 99.253%
Individual maximum impurity % ([4]; 5 days, High humidity RH92.5%): 0.127%
Chromatographic purity % [4, 7]: 96.953%
Individual maximum impurity % [4, 7]: 0.510%
Chromatographic purity % ([4]; 5 days, Light 4500 ± 500 LX): 91.635%
Individual maximum impurity % ([4]; 5 days, Light 4500 ± 500 LX): 1.094%
Chromatographic purity % ([4]; 10 days, High humidity RH92.5%): 99.202%
Individual maximum impurity % ([4]; 10 days, High humidity RH92.5%): 0.104%
Chromatographic purity % [4, 8]: 93.371%
Individual maximum impurity % [4, 8]: 1.224%
Chromatographic purity % ([4]; 10 days, Light 4500 ± 500 LX): 80.960%
Individual maximum impurity % ([4]; 10 days, Light 4500 ± 500 LX): 2.821%
Chromatographic purity % ([4]; 30 days, High humidity RH92.5%): 98.933%
Individual maximum impurity % ([4]; 30 days, High humidity RH92.5%): 0.172%
Chromatographic purity % [4, 9]: 80.070%
Individual maximum impurity % [4, 9]: 5.418%
Chromatographic purity % ([4]; 30 days, Light 4500 ± 500 LX): 59.908%
Individual maximum impurity % ([4]; 30 days, Light 4500 ± 500 LX): 8.206%

COC(=O)[C@H](c1ccccc1Cl)N1CCc2sc(OC(C)=O)cc2C1.Cl [Compound D-9, Methyl (S,E)-2-(2-chlorophenyl)-2-(2-acetoxy-6,7-dihydrothieno[3,2-c]pyridin-5(4H)-yl)-acetate Hydrochloride, reference compound]
Chromatographic purity % ([4]; 0 day, 0point): 99.802%
Individual maximum impurity % ([4]; 0 day, 0point): 0.062%
Chromatographic purity % ([4]; 5 days, High humidity RH92.5%): 29.362%
Individual maximum impurity % ([4]; 5 days, High humidity RH92.5%): 20.760%
Chromatographic purity % [4, 7]: 92.725%
Individual maximum impurity % [4, 7]: 2.897%
Chromatographic purity % ([4]; 5 days, Light 4500 ± 500 LX): 97.637%
Individual maximum impurity % ([4]; 5 days, Light 4500 ± 500 LX): 0.946%
Chromatographic purity % ([4]; 10 days, High humidity RH92.5%): 3.827%
Individual maximum impurity % ([4]; 10 days, High humidity RH92.5%): 26.942%
Chromatographic purity % [4, 8]: 84.395%
Individual maximum impurity % [4, 8]: 5.254%
Chromatographic purity % ([4]; 10 days, Light 4500 ± 500 LX): 96.472%
Individual maximum impurity % ([4]; 10 days, Light 4500 ± 500 LX): 1.621%
Individual maximum impurity % ([4]; 30 days, High humidity RH92.5%): 52.717%
Chromatographic purity % [4, 9]: 39.866%
Individual maximum impurity % [4, 9]: 9.740%
Chromatographic purity % ([4]; 30 days, Light 4500 ± 500 LX): 91.198%
Individual maximum impurity % ([4]; 30 days, Light 4500 ± 500 LX): 3.728%

C=C/C=C/C(=O)Oc1cc2c(s1)CCN([C@H](C(=O)OC)c1ccccc1Cl)C2 [Compound I-3, Methyl (S,E)-2-(2-chlorophenyl)-2-(2-(2,4-pentadienoyloxy)-6,7-dihydrothieno[3,2-c]pyridin-5(4H)-yl)-acetate]
ED50 [1, 6]: 1.04 mg/kg
Inhibition rate (%) ([1]; rats, intragastric 1 mg/kg): 44.0%
Inhibition rate (%) ([1]; rats, intragastric 2 mg/kg): 97.6%
Inhibition rate (%) ([1]; rats, intragastric 4 mg/kg): 100%
Aggregation rate (%) ([1]; rats, intragastric 1 mg/kg): 33.6 ± 31.3%
Aggregation rate (%) ([1]; rats, intragastric 2 mg/kg): 1.44 ± 2.5 %
Aggregation rate (%) ([1]; rats, intragastric 4 mg/kg): 0.0 ± 0.0 %

CC/C=C/C(=O)Oc1cc2c(s1)CCN([C@H](C(=O)OC)c1ccccc1Cl)C2 [Compound I-4, Methyl (S,E)-2-(2-chlorophenyl)-2-(2-(2-pentenoyloxy)-6,7-dihydrothieno[3,2-c]pyridin-5(4H)-yl)-acetate]
ED50 [1, 6]: 1.27 mg/kg
Inhibition rate (%) ([1]; rats, intragastric 0.5 mg/kg): 26.2%
Inhibition rate (%) ([1]; rats, intragastric 1 mg/kg): 38.2%
Inhibition rate (%) ([1]; rats, intragastric 2 mg/kg): 62.9%
Inhibition rate (%) ([1]; rats, intragastric 4 mg/kg): 78.4%
Inhibition rate (%) ([1]; rats, intragastric 8 mg/kg): 100.0%
Aggregation rate (%) ([1]; rats, intragastric 0.5 mg/kg): 44.3 ± 25.8%
Aggregation rate (%) ([1]; rats, intragastric 1 mg/kg): 37.1 ± 20.8%
Aggregation rate (%) ([1]; rats, intragastric 2 mg/kg): 22.3 ± 17.2 %
Aggregation rate (%) ([1]; rats, intragastric 4 mg/kg): 13.0 ± 11.3 %
Aggregation rate (%) ([1]; rats, intragastric 8 mg/kg): 0.0 ± 0.0 %

CCC/C=C/C(=O)Oc1cc2c(s1)CCN([C@H](C(=O)OC)c1ccccc1Cl)C2 [Compound I-5, Methyl (S,E)-2-(2-chlorophenyl)-2-(2-(2-hexenoyloxy)-6,7-dihydrothieno[3,2-c]pyridin-5(4H)-yl)-acetate]
ED50 ([1]; Platelet, po): 1.03 mg/kg
Inhibition rate (%) ([1]; rats, intragastric 0.5 mg/kg): 19.5%
Inhibition rate (%) ([1]; rats, intragastric 1 mg/kg): 52.8%
Inhibition rate (%) ([1]; rats, intragastric 2 mg/kg): 74.3%
Aggregation rate (%) ([1]; rats, intragastric 0.5 mg/kg): 48.4 ± 17.3%
Aggregation rate (%) ([1]; rats, intragastric 1 mg/kg): 28.3 ± 11.7 %
Aggregation rate (%) ([1]; rats, intragastric 2 mg/kg): 15.4 ± 14.7 %

CC(=O)Oc1cc2c(s1)CCN(C(C(=O)C1CC1)c1ccccc1F)C2 (centres unmarked) [Prasugrel, reference compound]
ED50 [1, 6]: 0.612 mg/kg
Inhibition rate (%) ([1]; rats, intragastric 0.25 mg/kg): 13.3%
Inhibition rate (%) ([1]; rats, intragastric 0.5 mg/kg): 37.8%
Inhibition rate (%) ([1]; rats, intragastric 1 mg/kg): 75.0%
Aggregation rate (%) ([1]; rats, intragastric 0.25 mg/kg): 52.1 ± 6.6%
Aggregation rate (%) ([1]; rats, intragastric 0.5 mg/kg): 37.4 ± 12.3 %
Aggregation rate (%) ([1]; rats, intragastric 1 mg/kg): 15.0 ± 10.2 %
ED50 [2]: 1.57 mg/kg
Inhibition rate (%) ([2]; intragastric 0.1 mg/kg): 6.0%
Inhibition rate (%) ([2]; intragastric 0.3 mg/kg): 9.0%
Inhibition rate (%) ([2]; intragastric 1 mg/kg): 35.7%
Inhibition rate (%) ([2]; intragastric 3 mg/kg): 70.2%
ED200 (dose that doubled the bleeding time) [5]: 0.513 mg/kg
